The target of this experiment is T1, human M4 muscarinic acetylcholine receptor (Homo sapiens, UniProt P08173).
T1 construct: expressed in transfected cells
T1 sequence (P08173 1-479): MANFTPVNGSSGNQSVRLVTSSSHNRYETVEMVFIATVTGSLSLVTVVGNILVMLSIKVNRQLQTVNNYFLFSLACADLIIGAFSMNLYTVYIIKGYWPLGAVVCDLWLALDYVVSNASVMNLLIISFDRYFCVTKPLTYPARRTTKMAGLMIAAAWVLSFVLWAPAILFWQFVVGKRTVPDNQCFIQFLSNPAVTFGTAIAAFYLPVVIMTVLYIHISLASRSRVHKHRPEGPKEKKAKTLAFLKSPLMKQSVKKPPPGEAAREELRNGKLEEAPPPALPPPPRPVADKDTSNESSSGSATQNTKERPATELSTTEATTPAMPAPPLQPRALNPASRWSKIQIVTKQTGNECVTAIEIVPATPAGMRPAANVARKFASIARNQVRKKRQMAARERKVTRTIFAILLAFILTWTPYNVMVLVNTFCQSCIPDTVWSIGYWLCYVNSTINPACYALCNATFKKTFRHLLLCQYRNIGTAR
Description: human FLIPR-based M4 PAM assay (CHO-K1 cells with human M4 receptor and Gαqi5, calcium dye fluorescence, EC20 acetylcholine). In kind it is cell-based. To be noted: inflection point (IP) of the dose response curve, human M4 receptor/Gαqi5, acetylcholine at 20% of maximum response, read-out: M4PAM Hu IP. Summed up:
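CHO-K1 cells stably expressing human M4 and chimeric Gαqi5 were dye-loaded ~1 h at 37° C. Test compound was added with fluorescence recorded 4 min, then acetylcholine at EC20 (sometimes a further EC70 addition) with reading 3.5 min. Value is the inflection point of a 4-parameter logistic fit.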
For the compound `COc1cc2ccc(-c3nc(C)ccc3-c3cnn(Cc4ccccc4F)c3)cc2nn1` [Example 21, 7-{3-[1-(2-fluorobenzyl)-1H-pyrazol-4-yl]-6-methylpyridin-2-yl}-3-methoxycinnoline], the EC50 amounted to 62 nM.
On to `COc1cc2ccc(-c3nc(C)ccc3-c3cnn(CC4(C)CCC4)c3)cc2nn1` [Example 25, 3-methoxy-7-(6-methyl-3-{1-[(1-methylcyclobutyl)methyl]-1H-pyrazol-4-yl}pyridin-2-yl)cinnoline], for which the EC50 came to 46 nM.
For `CC(C)(C)Cn1cc(-c2ccc(C#N)nc2-c2ccc3cccnc3c2)cn1` [Example 37, 5-[1-(2,2-dimethylpropyl)-1H-pyrazol-4-yl]-6-quinolin-7-ylpyridine-2-carbonitrile], the EC50 amounted to 25 nM.
In the case of `N#Cc1ccc(-c2cnn(CC3(C(F)(F)F)CC3)c2F)c(-c2ccc3cccnc3c2)n1` [Example 59, 5-(5-fluoro-1-{[1-(trifluoromethyl)cyclopropyl]methyl}-1H-pyrazol-4-yl)-6-quinolin-7-ylpyridine-2-carbonitrile] it was 57 nM; in that of `Cc1ccc(-c2cnn(Cc3ccccc3)c2)c(-c2ccc3cccnc3c2)n1` [Example 4, 7-[3-(1-benzyl-1H-pyrazol-4-yl)-6-methylpyridin-2-yl]quinoline], 91 nM.
For the compound `Cc1ccc(-c2cnn(Cc3ccccc3F)c2)c(-c2ccc3cccnc3c2)n1` [Example 20, 7-{3-[1-(2-fluorobenzyl)-1H-pyrazol-4-yl]-6-methylpyridin-2-yl}quinoline], the EC50 was found to be 92 nM.
In the case of `COc1cc2ccc(-c3nc(C)ccc3-c3cnn(CC45CC(C4)C5)c3)cc2nn1` [Example 10, 7-{3-[1-(bicyclo[1.1.1]pent-1-ylmethyl)-1H-pyrazol-4-yl]-6-methylpyridin-2-yl}-3-methoxycinnoline] it was 20 nM; in that of `CC(C)(Cn1cc(-c2ccc(C#N)nc2-c2ccc3cccnc3c2)cn1)C(F)F` [Example 90, 5-[1-(3,3-difluoro-2,2-dimethylpropyl)-1H-pyrazol-4-yl]-6-quinolin-7-ylpyridine-2-carbonitrile], 27 nM.
In the case of `COc1cc2ccc(-c3nc(C#N)ccc3-c3cnn(CC4(CC#N)CC4)c3)cc2nn1` [Example 104, 5-(1-{[1-(cyanomethyl)cyclopropyl]methyl}-1H-pyrazol-4-yl)-6-(3-methoxycinnolin-7-yl)pyridine-2-carbonitrile], the EC50 was 154 nM.
In the case of `Cc1ccc(-c2cnn(CC3CC3(C)C)c2)c(-c2ccc3cccnc3c2)n1` (stereo not shown) [Example 101, 7-(3-{1-[(2,2-dimethylcyclopropyl)methyl]-1H-pyrazol-4-yl}-6-methylpyridin-2-yl)quinoline] it was 100 nM; in that of `CC(C)(O)C(F)(F)Cn1cc(-c2ccc(C#N)nc2-c2ccc3cccnc3c2)cn1` [Example 117, 5-[1-(2,2-difluoro-3-hydroxy-3-methylbutyl)-1H-pyrazol-4-yl]-6-quinolin-7-ylpyridine-2-carbonitrile], 104 nM; in that of `CC(C)CCn1cc(-c2ccc(-c3ccnn3C)nc2-c2ccc3cccnc3c2)cn1` [Example 68, 7-{3-[1-(3-methylbutyl)-1H-pyrazol-4-yl]-6-(1-methyl-1H-pyrazol-5-yl)pyridin-2-yl}quinoline], 118 nM.
Regarding `CC(C)(C)CCn1cc(-c2ccc(C#N)nc2-c2ccc3cccnc3c2)cn1` [Example 89, 5-[1-(3,3-dimethylbutyl)-1H-pyrazol-4-yl]-6-quinolin-7-ylpyridine-2-carbonitrile], the EC50 worked out at 52 nM.
In the case of `COc1cc2ccc(-c3nc(C)ccc3-c3cnn(CCC(C)(C)F)c3F)cc2nn1` [Example 36, 7-{3-[5-fluoro-1-(3-fluoro-3-methylbutyl)-1H-pyrazol-4-yl]-6-methylpyridin-2-yl}-3-methoxycinnoline] it was 14 nM; in that of `CC(C)CCn1cc(-c2ccc(C(F)(F)F)nc2-c2ccc3cccnc3c2)cn1` [Example 49, 7-{3-[1-(3-methylbutyl)-1H-pyrazol-4-yl]-6-(trifluoromethyl)pyridin-2-yl}quinoline], 84 nM; in that of `c1cnc(-c2ccc3cccnc3c2)c(-c2cnn(CCC3CC3)c2)c1` [Example 96, 7-{3-[1-(2-cyclopropylethyl)-1H-pyrazol-4-yl]pyridin-2-yl}quinoline], 239 nM.
`COc1cc2ccc(-c3nc(C)ccc3-c3cnn(CC4(C)CCOC4)c3)cc2nn1` (single isomer, unassigned) [Example 98, 3-methoxy-7-(6-methyl-3-{1-[(3-methyltetrahydrofuran-3-yl)methyl]-1H-pyrazol-4-yl}pyridin-2-yl)cinnoline]: the EC50 is 57 nM.
In the case of `COc1cc2ccc(-c3nc(C)ccc3-c3cnn(CCCC(F)=C(F)F)c3)cc2nn1` [Example 80, 3-methoxy-7-{6-methyl-3-[1-(4,5,5-trifluoropent-4-en-1-yl)-1H-pyrazol-4-yl]pyridin-2-yl}cinnoline] it was 154 nM; in that of `c1cnc(-c2ccc3cccnc3c2)c(-c2cnn(CCC3CCC3)c2)c1` [Example 95, 7-{3-[1-(2-cyclobutylethyl)-1H-pyrazol-4-yl]pyridin-2-yl}quinoline], 158 nM; in that of `COc1cc2ccc(-c3nc(C)ccc3-c3cnn(CC4CCCCC4)c3)cc2nn1` [Example 107, 7-{3-[1-(cyclohexylmethyl)-1H-pyrazol-4-yl]-6-methylpyridin-2-yl}-3-methoxycinnoline], 16 nM.
In the case of `CC(C)C(O)Cn1cc(-c2ccc(C#N)nc2-c2ccc3cccnc3c2)cn1` (stereo not shown) [Example 46, 5-[1-(2-hydroxy-3-methylbutyl)-1H-pyrazol-4-yl]-6-quinolin-7-ylpyridine-2-carbonitrile], the EC50 was 169 nM.
In the case of `CC(C)CCn1cc(-c2ccc(F)nc2-c2ccc3cccnc3c2)cn1` [Example 65, 7-{6-fluoro-3-[1-(3-methylbutyl)-1H-pyrazol-4-yl]pyridin-2-yl}quinoline] it was 95 nM; in that of `Cc1cnc(-c2ccc3cccnc3c2)c(-c2cnn(CCC(C)C)c2)c1` [Example 71, 7-{5-methyl-3-[1-(3-methylbutyl)-1H-pyrazol-4-yl]pyridin-2-yl}quinoline], 222 nM.
In the case of `CC(C)CCn1cc(-c2cc(Cl)cnc2-c2ccc3cccnc3c2)cn1` [Example 52, 7-{5-chloro-3-[1-(3-methylbutyl)-1H-pyrazol-4-yl]pyridin-2-yl}quinoline] it was 145 nM.
In the case of `Cc1ccc2ccc(-c3nc(C#N)ccc3-c3cnn(CC(C)(C)C)c3)cc2n1` [Example 39, 5-[1-(2,2-dimethylpropyl)-1H-pyrazol-4-yl]-6-(2-methylquinolin-7-yl)pyridine-2-carbonitrile] it was 92 nM; in that of `COc1cc2ccc(-c3nc(C(F)F)ccc3-c3cnn(CC(C)(C)C)c3)cc2nn1` [Example 54, 7-{6-(difluoromethyl)-3-[1-(2,2-dimethylpropyl)-1H-pyrazol-4-yl]pyridin-2-yl}-3-methoxycinnoline], 53 nM.
For `COc1cc2ccc(-c3nc(Cl)c(C)cc3-c3cnn(CC(C)(C)OC)c3)cc2nn1` [Example 31, 7-{6-chloro-3-[1-(2-methoxy-2-methylpropyl)-1H-pyrazol-4-yl]-5-methylpyridin-2-yl}-3-methoxycinnoline], the EC50 is 76 nM.
In the case of `CC(C)(C)Cn1cc(-c2ccc(C(F)F)nc2-c2ccc3cccnc3c2)cn1` [Example 109, 7-{6-(difluoromethyl)-3-[1-(2,2-dimethylpropyl)-1H-pyrazol-4-yl]pyridin-2-yl}quinoline] it was 48 nM; in that of `CC(C)CCn1cc(-c2ccc(Br)nc2-c2ccc3cccnc3c2)cn1` [Example 74, 7-{6-bromo-3-[1-(3-methylbutyl)-1H-pyrazol-4-yl]pyridin-2-yl}quinoline], 39 nM.
In the case of `Cc1ccc(-c2cnn(CC3(C)CCCCC3)c2)c(-c2ccc3cc(C(F)(F)F)cnc3c2)n1` [Example 7, 7-(6-methyl-3-{1-[(1-methylcyclohexyl)methyl]-1H-pyrazol-4-yl}pyridin-2-yl)-3-(trifluoromethyl)quinoline] it was 137 nM; in that of `N#Cc1ccc(-c2cnn(CC3(F)CC3)c2)c(-c2ccc3cccnc3c2)n1` [Example 111, 5-{1-[(1-fluorocyclopropyl)methyl]-1H-pyrazol-4-yl}-6-quinolin-7-ylpyridine-2-carbonitrile], 110 nM.
